target: T1, purified human HDAC6 (Homo sapiens, UniProt Q9UBN7); assay: HDAC6 Enzyme Assay; format: biochemical; conditions: compound concentration 0.37 μM, read-out: Percent Inhibition
T1 construct: purchased BPS Bioscience 5006
T1 sequence (Q9UBN7 1-1215): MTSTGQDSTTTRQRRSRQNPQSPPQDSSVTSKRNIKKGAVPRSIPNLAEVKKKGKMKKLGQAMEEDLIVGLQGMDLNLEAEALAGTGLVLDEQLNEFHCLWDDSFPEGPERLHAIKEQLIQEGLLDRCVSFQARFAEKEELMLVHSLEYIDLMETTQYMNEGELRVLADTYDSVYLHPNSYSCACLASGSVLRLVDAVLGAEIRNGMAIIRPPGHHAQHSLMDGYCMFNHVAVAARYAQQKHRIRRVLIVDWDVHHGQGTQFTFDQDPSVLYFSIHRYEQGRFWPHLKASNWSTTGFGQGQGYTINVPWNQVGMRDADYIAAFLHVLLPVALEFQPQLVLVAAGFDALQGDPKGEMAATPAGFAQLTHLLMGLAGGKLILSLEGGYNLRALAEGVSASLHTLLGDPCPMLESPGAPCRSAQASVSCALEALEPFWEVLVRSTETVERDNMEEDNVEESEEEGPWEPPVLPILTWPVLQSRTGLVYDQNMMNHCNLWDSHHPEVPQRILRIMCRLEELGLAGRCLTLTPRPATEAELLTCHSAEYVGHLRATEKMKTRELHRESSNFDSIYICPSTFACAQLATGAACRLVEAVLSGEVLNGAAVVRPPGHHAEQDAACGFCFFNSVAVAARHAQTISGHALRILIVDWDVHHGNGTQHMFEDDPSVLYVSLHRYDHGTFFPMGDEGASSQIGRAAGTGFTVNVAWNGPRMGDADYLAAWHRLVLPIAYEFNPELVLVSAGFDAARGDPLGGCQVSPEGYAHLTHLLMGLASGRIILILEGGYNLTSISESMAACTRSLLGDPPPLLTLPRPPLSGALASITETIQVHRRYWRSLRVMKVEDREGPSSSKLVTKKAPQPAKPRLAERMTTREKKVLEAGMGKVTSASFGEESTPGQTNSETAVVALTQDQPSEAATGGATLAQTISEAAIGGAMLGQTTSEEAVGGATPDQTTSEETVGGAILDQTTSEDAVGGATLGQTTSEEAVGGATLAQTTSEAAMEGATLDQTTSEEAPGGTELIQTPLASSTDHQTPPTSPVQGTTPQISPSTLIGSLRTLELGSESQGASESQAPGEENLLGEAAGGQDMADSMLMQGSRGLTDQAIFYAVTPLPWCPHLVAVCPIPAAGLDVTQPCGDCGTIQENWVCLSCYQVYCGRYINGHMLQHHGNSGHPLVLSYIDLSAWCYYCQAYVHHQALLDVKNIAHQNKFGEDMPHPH
Summary of the method: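 Purified human HDAC6 incubated 1 h at 30° C with Ac-Arg-Gly-Lys(Ac)-AMC peptide plus compound or DMSO; stopped with trichostatin A. Deacetylated product trypsin-digested, released AMC read by fluorescence (Ex 340/Em 460 nm). Percent inhibition at one concentration or IC50 from curves relative to DMSO controls.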

| inhibition at 0.37 µM [%] | Compound |
| --- | --- |
| 84.1 | O=C(NO)c1ccc2ncn(Cc3cccc(-c4cc(C(F)(F)F)cc(C(F)(F)F)c4)c3)c(=O)c2c1 [Compound I-79, 3-{[3′,5′-bis(trifluoromethyl)biphenyl-3-yl]methyl}-N-hydroxy-4-oxo-3,4-dihydroquinazoline-6-carboxamide] |
| 92.2 | O=C(NO)c1ccc2c(=O)n(Cc3ccc(C(F)(F)F)cc3)c(-c3cccnc3)nc2c1 [Compound I-133, N-hydroxy-4-oxo-2-pyridin-3-yl-3-[4-(trifluoromethyl)benzyl]-3,4-dihydroquinazoline-7-carboxamide] |
| 85.5 | O=C(NO)c1ccc2ncn(Cc3cccc(-c4ccccc4Cl)c3)c(=O)c2c1 [Compound I-28, 3-[(2′-chlorobiphenyl-3-yl)methyl]-N-hydroxy-4-oxo-3,4-dihydroquinazoline-6-carboxamide] |
| 91.7 | O=C(NO)c1ccc2ncn(CCc3cccc(-c4ccc(F)cc4)c3)c(=O)c2c1 [Compound I-300, 3-[2-(4′-fluorobiphenyl-3-yl)ethyl]-N-hydroxy-4-oxo-3,4-dihydroquinazoline-6-carboxamide] |
| 62.3 | O=C(NO)c1ccc2c(=O)[nH]c(-c3cccc(-c4ccncc4)c3)nc2c1 [Compound I-396, N-hydroxy-4-oxo-2-(3-pyridin-4-ylphenyl)-3,4-dihydroquinazoline-7-carboxamide] |

The next lines start with the compound.

| Compound | inhibition at 0.37 µM [%] |
| --- | --- |
| CS(=O)(=O)c1cccc(CCn2cnc3ccc(C(=O)NO)cc3c2=O)c1 [Compound I-216, N-hydroxy-3-{2-[3-(methylsulfonyl)phenyl]ethyl}-4-oxo-3,4-dihydroquinazoline-6-carboxamide] | 85.7 |
| Cc1ccc(Cc2nc3cc(C(=O)NO)ccc3c(=O)[nH]2)c(C)c1 [Compound I-417, 2-(2,4-dimethylbenzyl)-N-hydroxy-4-oxo-3,4-dihydroquinazoline-7-carboxamide] | 56.7 |

same assay, conditions: compound concentration 0.412 μM, read-out: Percent Inhibition

| inhibition at 0.412 µM [%] | Compound |
| --- | --- |
| 76 | O=C(NO)c1ccc2c(=O)[nH]c(COc3cccc(C(F)(F)F)c3)nc2c1 [Compound I-110, N-hydroxy-4-oxo-2-{[3-(trifluoromethyl)phenoxy]methyl}-3,4-dihydroquinazoline-7-carboxamide] |
| 94.2 | O=C(NO)c1ccc2ccn(CCCOc3cccc(C(F)(F)F)c3)c(=O)c2c1 [Compound I-176, N-hydroxy-1-oxo-2-{3-[3-(trifluoromethyl)phenoxy]propyl}-1,2-dihydroisoquinoline-7-carboxamide] |

The next lines start with the compound.

| Compound | inhibition at 0.412 µM [%] |
| --- | --- |
| CCN(CC)Cc1nc2cc(C(=O)NO)ccc2c(=O)[nH]1 [Compound I-84, 2-[(diethylamino)methyl]-N-hydroxy-4-oxo-3,4-dihydroquinazoline-7-carboxamide] | 60.5 |
| CS(=O)(=O)c1ccccc1OCc1nc2cc(C(=O)NO)ccc2c(=O)[nH]1 [Compound I-249, N-hydroxy-2-{[2-(methylsulfonyl)phenoxy]methyl}-4-oxo-3,4-dihydroquinazoline-7-carboxamide] | 56.5 |
| CC(C)(C)OC(=O)N1CCC(CCn2ccc3ccc(C(=O)NO)cc3c2=O)CC1 [Compound I-58, tert-butyl 4-{2-[7-[(hydroxyamino)carbonyl]-1-oxoisoquinolin-2(1H)-yl]ethyl}piperidine-1-carboxylate] | 80.4 |
| O=C(Cn1cnc2ccc(C(=O)NO)cc2c1=O)c1ccc(N2CCCC2)cc1 [Compound I-273, N-hydroxy-4-oxo-3-[2-oxo-2-(4-pyrrolidin-1-ylphenyl)ethyl]-3,4-dihydroquinazoline-6-carboxamide] | 85.1 |
| O=C(NO)c1ccc2ccn(CC3CCNCC3)c(=O)c2c1 [Compound I-2, N-hydroxy-1-oxo-2-(piperidin-4-ylmethyl)-1,2-dihydroisoquinoline-7-carboxamide] | 82.2 |
| O=C(NO)c1ccc2ccn(Cc3cccc(F)c3F)c(=O)c2c1 [Compound I-24, 2-(2,3-difluorobenzyl)-N-hydroxy-1-oxo-1,2-dihydroisoquinoline-7-carboxamide] | 93.7 |
